Reference: PubChem BioAssay (NCI)
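Assay format: 96-well plates, 48-hour exposure. TGI is the concentration that stops growth completely.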

Legend:
Assay in all cases: NCI tumour cell line growth inhibition, 48 h
[1] = test system: P388/ADR leukemia
[2] = test system: XF 498 CNS
[3] = test system: DMS 273 small cell lung
[4] = test system: M19-MEL melanoma
[5] = test system: SN12K1 renal
[6] = test system: DMS 114 small cell lung
[7] = test system: P388 leukemia
[8] = test system: RXF-631 renal
[9] = test system: LXFL 529 NSCLC

| Compound | TGI [1] | TGI [2] | TGI [3] | TGI [4] | TGI [5] | TGI [6] | TGI [7] | TGI [8] | TGI [9] |
| --- | --- | --- | --- | --- | --- | --- | --- | --- | --- |
| Cc1cn(C2CC(O)C(CO)O2)c(=O)[nH]c1=O (stereo unspecified) | 2.65 mM | 366 µM | > 5000 µM | > 5000 µM | 4.53 mM | > 4670 µM | 1.97 mM |  |  |
| CCCSCC(P(=O)(O)O)P(=O)(O)O | > 0.1 mM | > 100 µM | > 100 µM | > 100 µM | > 0.1 mM | > 100 µM | > 0.1 mM |  |  |
| CSc1nsc(-c2ccccc2)[s+]1 |  |  | > 100 µM | > 100 µM |  |  |  | > 100 µM |  |
| CC1=NS(=O)(=O)c2ccccc2N1 |  |  | > 100 µM | > 100 µM |  | > 100 µM |  |  | > 100 µM |
